Measurements taken from patent US12378508B2, “Organ-on-chips that mimic human pregnancy and parturition” (The Texas A&M University System, priority 2020, dated 2025).

Key:
[1] = tested on: amnion epithelial cells (AECs); experiment: Cell migration through type IV collagen-filled microchannels of AM-OOC (bright field microscopy); assay type: cell-based, human; settings: coculture, OS (CSE) cotreatment in both chambers
Text: Before using the AM-OOC, devices were washed 3 times with PBS and coated with Matrigel as previously described. The next day, devices were washed 3 times with complete DMEM-F12 medium before cell seeding. Primary cells were then trypsinized and stained with live cell dyes for green fluorescent protein (GFP) (for AEC; CellLight Histone 2B-GFP) or red fluorescent protein (RFP) (for AMC; CellLight Histone 2B-RFP) following the protocol provided by the company (10594 and 10595; Thermo Fisher Scientific, Waltham, MA, USA). Then, 120,000 AECs were loaded into the outer chamber, and 40,000 AMCs were loaded into the inner chamber of the AM-OOC. The AM-OOCs were incubated at 37° C. with 5% CO2 for 24 h before localized treatment (see next section).
To test the effect of OS on cellular transition in the amnion membrane, each AM-OOC was treated with one of the following for 48 h: 1) normal cell culture conditions (control DMEM-F12 medium); 2) OS conditions [induced by treating cells with cigarette smoke extract (CSE)] diluted 1:25 in AEC medium or diluted 1:75 in AMC medium; and 3) to verify the effect of OS, cells were cotreated with an OS inducer (CSE) and an antioxidant or stress signaler p38 MAPK inhibitor [N-acetyl-L-cysteine (NAC, 15 mM, A7250; MilliporeSigma] (23, 29) and SB203580 ([…], S8307; MilliporeSigma) (23, 29), a p38 MAPK inhibitor and a known inducer of EMT. […]

[2] = tested on: AEC chamber; experiment: LPS induced inflammation propagation in FMI-OOC, cytokines in cell supernatant; assay type: cell-based
Experimental: (§1) FIG. 12A illustrates after lipopolysaccharide (LPS) treatment in the AEC chamber for 24, 48, or 72 hours, cell supernatants were collected from each cell chamber within the FMI-OOC to document LPS induced inflammation propagation. LPS induced an increase in AEC IL-8 production at 24 and 48 hours, which reached the maternal decidua chamber by 72 hours, causing an increase in IL-8. Documenting LPS induced fetal inflammation can reach the maternal compartment in 72 hours within an FMI-OOC device.
(§2) FIG. 12B illustrates after LPS treatment in the maternal decidua (DECI) chamber for 24, 48, or 72 hours, cell supernatants were collected from each cell chamber within the FMI-OOC to document LPS induced inflammation propagation. LPS induced an increase in DECI IL-6 production at 24, which reached the fetal AEC chamber by 24 hours, causing a rise in IL-8 that increased over 72 hours. Documenting LPS induced maternal inflammation can reach the fetal compartment in 72 hours within an FMI-OOC device.
(§3) The device described here expands the previously described two-chamber coculture model into a four-chamber coculture model to include both fetal and maternal cell components. The fetal membrane-decidua interface model (FMI-OOC) composed of four coculture compartments interconnected through arrays of microfluidic channels (FIG. 10 and FIG. 11). Here, three cell types from the fetal side (AEC, AMC, chorion mesenchymal cells (CMC)/chorion trophoblast (CT)) and one from the maternal side (decidua cells) were used, establishing the first OOC model that contains both fetal and maternal cells. Cell loading concentration into each chamber mimicked those of in utero cell ratios of the fetal membrane tissue. The microfluidic channel array prevents cells from flowing into the neighboring compartments during initial cell loading, allow localized drug treatment of each cell layer, and allow taking supernatant from each layer independently for local biochemical analysis. At the same time, these channels allow biochemicals to diffuse between the layers, and also permit cell migration and transition.

[3] = tested on: maternal decidua (DECI) chamber; experiment: as above; assay type: cell-based
Experimental: as §1, §2, §3

`CC(=O)N[C@@H](CS)C(=O)O` [NAC, N-acetyl-L-cysteine] was tested, and the “effect on OS cotreatment-induced AEC transition, blocked migration and increased inflammation” value [1] was “prevented”.

lipopolysaccharide [LPS] was tested, and the “AEC IL-8 production” value ([2]; LPS treatment in the AEC chamber, at 24 and 48 hours) was “increase”, the “IL-8 in fetal AEC chamber” value ([2]; LPS treatment in the maternal decidua (DECI) chamber, from 24 hours, increased over 72 hours) was “rise” and the “IL-8 in maternal decidua chamber” value ([3]; LPS treatment in the AEC chamber, by 72 hours) was “increase”. The “DECI IL-6 production” value ([3]; LPS treatment in the maternal decidua (DECI) chamber, at 24) was “increase”.
